Reference: US20260355115A1, “SUSTAINED-RELEASE MICROSPHERES INCLUDING GLP-1 RECEPTOR AGONIST OR PHARMACEUTICALLY ACCEPTABLE SALT THEREOF AND USE THEREOF” (PEPTRON, INC., priority 2022, published 2026)

Assays:
[1] = Pharmacokinetic profile of sustained-release formulation in minipigs (s.c., LC-MS/MS of blood); type: in vivo; conditions: 0.08 mpk
Experimental: Next, in order to evaluate the pharmacokinetics in medium-sized animals, the sustained-release formulation of Example 3 according to the present invention was administered to minipigs, and the drug release patterns within the microspheres in the body were evaluated.
After subcutaneous injection (S.C) of drug at a dose of 0.08 mpk (mg/kg) into 20 to 30 kg of male SPF minipigs, the blood concentration of semaglutide was observed over time. A 2.5 ml of blood was collected from the jugular vein at 1 hour, 6 hours, 12 hours, 24 hours, 2 days, 3 days, 5 days, 7 days, 9 days, 11 days, 14 days, 16 days, 18 days, 21 days, 24 days, 28 days, 31 days, 35 days, 42 days, 49 days, 56 days, 63 days, and 70 days (total 23 points) after injection, respectively, stored at −80 °C, and then subjected to LC-MS/MS analysis.

[2] = Evaluation of anti-obesity efficacy in diet-induced obesity (DIO) mouse model; type: in vivo, C57BL/6J-DIO mice; conditions: 0.1 mpk s.c. QD, 8 weeks, 60% HFD
Experimental: The sustained-release formulation of Example 3 according to the present invention was administered to a diet-induced obesity (DIO) mouse model to confirm the anti-obesity efficacy.
Sixteen-week-old male C57BL/6J and C57BL/6J-DIO mice (The Jackson Laboratory (JAX), Saeron Bio) were used in the study. After introduction, the mice were sufficiently fed with a regular chow diet (5 kcal % of fat, PicoLab, #5053, USA) or a high fat diet (60 kcal % of fat, Research diet, D12492, USA) together with water, maintained at a temperature of 22±2 °C and a humidity of 50±10%, and acclimated in individual cages under an automatically controlled 12-hour light/dark cycle (dark: 7 pm to 7 am). After one week of acclimation, all prepared subjects were administered and acclimated, and clinical signs (activity, stool abnormalities, bleeding, wounds, deformities, skin, hair, eye abnormalities, etc.) were observed twice a day (when administered in the morning and when monitored in the afternoon).
To evaluate body weight and food intake, the drug was administered for 8 weeks under conditions described in Table 6, and body weight (FX-2000i, A&D company, 0.01 to 2200 g) and food intake (CSG201F, OHAUS, 0.1 g to 200 g) were measured daily starting from the first day of administration. All result values were expressed as the mean±standard error, and the statistical significance of the group was calculated through an independent t-test between test substance administration groups.
The body weight measurement results were shown in FIG. 5A, and the body weight gain rate (ΔBody weight from baseline (vs Con(-)), %) was shown in FIG. 5B. This was shown as the body weight change (%) calculated by comparing the drug-administered groups to the negative control group.

Release duration of semaglutide ([1]; formulation containing the microspheres of Example 3, compared with S.D. rats): longer in minipigs
Compound: CC[C@H](C)[C@H](NC(=O)[C@H](Cc1ccccc1)NC(=O)[C@H](CCC(=O)O)NC(=O)[C@H](CCCCNC(=O)COCCOCCNC(=O)COCCOCCNC(=O)CC[C@H](NC(=O)CCCCCCCCCCCCCCCCC(=O)O)C(=O)O)NC(=O)[C@H](C)NC(=O)[C@H](C)NC(=O)[C@H](CCC(N)=O)NC(=O)CNC(=O)[C@H](CCC(=O)O)NC(=O)[C@H](CC(C)C)NC(=O)[C@H](Cc1ccc(O)cc1)NC(=O)[C@H](CO)NC(=O)[C@H](CO)NC(=O)[C@@H](NC(=O)[C@H](CC(=O)O)NC(=O)[C@H](CO)NC(=O)[C@@H](NC(=O)[C@H](Cc1ccccc1)NC(=O)[C@@H](NC(=O)CNC(=O)[C@H](CCC(=O)O)NC(=O)C(C)(C)NC(=O)[C@@H](N)Cc1cnc[nH]1)[C@@H](C)O)[C@@H](C)O)C(C)C)C(=O)N[C@@H](C)C(=O)N[C@@H](Cc1c[nH]c2ccccc12)C(=O)N[C@@H](CC(C)C)C(=O)N[C@H](C(=O)N[C@@H](CCCNC(=N)N)C(=O)NCC(=O)N[C@@H](CCCNC(=N)N)C(=O)NCC(=O)O)C(C)C [semaglutide, N^6,26-{18-[N-(17carboxyheptadecanoyl)-L-γ-glutamyl]-10-oxo-3,6,12,15-tetraoxa-9,18-diazaoctanoyl}-[8 (2-amino-2-propanoic acid), 34-L-arginine] human glucagon-like peptide 1(7-37)]
Initial burst release or delayed release ([1]; formulation containing the microspheres of Example 3): no initial burst release or delayed release in minipigs | Body weight loss rate (ΔBody weight from baseline vs Con(-)) [2]: statistically significant (p<0.05) body weight loss rate | Body weight vs negative control group [2]: statistically significant decrease (p<0.05) in body weight | Food intake vs negative control group [2]: statistically significant decrease (p<0.05) in food intake
